“Also recorded” adds a separate entry of the source.
Assays:
[1] = in vitro; type: in vitro ADME; conditions: rat
Procedure: Separate peaks representing the intact peptide and its metabolites are plotted as a function of time. The area under the curve for selected peaks may be measured and compared to appropriate standards to quantify the concentration of γ-Glu-Cys and its metabolites.
Loss of γ-Glu-Cys from the incubation medium, and the appearance of Cys and oxidized γ-Glu-Cys were quantified using HPLC to measure degradation, hydrolysis, and oxidation respectively. The ½-time for degradation of γ-Glu-Cys is 11.3±1.2 mins. Values are mean±SD. N=3 separate experiments.
Loss of γ-Glu-D-Cys from the incubation medium, and the appearance of D-Cys and oxidized γ-Glu-D-Cys were quantified using HPLC to measure degradation, hydrolysis, and oxidation respectively. Values are mean±SD. N=3 separate experiments.
Comparing the initial rates of degradation confirmed that γ-Glu-D-Cys is degraded more slowly (0.12±0.02 vs 0.22±0.02 mM/min, P=0.006). Values are mean±SD. N=3 separate experiments.
Values are mean±SD. N=3 separate experiments. * indicates significant difference at P<0.05.
As a measure of stability, the initial velocities of degradation for γ-Glu-Cys and γ-Glu-D-Cys were compared and found to be 0.22±0.03 vs. 0.12±0.02 (mM/min), respectively.
FIG. 11 is a graph showing the temporal comparison of degradation, oxidation and hydrolysis of γ-Glu-Cys. FIG. 12 is a graph showing the temporal comparison of degradation, oxidation, and hydrolysis of the analog γ-Glu-D-Cys. FIG. 13 is a graph comparing the degradation of γ-Glu-Cys and γ-Glu-D-Cys, as measured by the loss of intact peptide as a function of time of incubation. FIG. 14 is a graph comparing the hydrolysis of γ-Glu-Cys and γ-Glu-D-Cys, by appearance of cysteine and D-cysteine respectively, as a function of time. Mean±SE; * indicates significant difference at P<0.05. FIG. 15 is a graph comparing the oxidation of γ-Glu-Cys and γ-Glu-D-Cys, by appearance of oxidized γ-Glu-Cys and oxidized γ-Glu-D-Cys respectively, as a function of time. Mean±SE. * indicates P<0.05.

[2] = Oxiselect Total Antioxidant Capacity Assay in rat serum (1-9%) in Tris Buffer; conditions: 0.0625, 0.125, 0.3125 and 0.625 mM, averaged
Procedure: (§1) FIGS. 16a and 16b indicate that the antioxidant capacities of γ-Glu-Cys and γ-Glu-D-Cys are the same using an in vitro assay. Antioxidant capacities were measured with the Oxiselect Total Antioxidant Capacity Assay Kit, using uric acid as a standard. […] Values are mean±SE. N=3 separate experiments for the 0.78, 1.56, and 3.13 mM concentrations. N=2 separate experiments for the 0.39 mM concentration. *P=0.047.

[3] = Oxiselect Total Antioxidant Capacity Assay in human plasma (90-99%)
Procedure: as §1

[4] = system: Human red blood cells; test: Spontaneous hemolysis of human red blood cells (hemoglobin release at 540 nm); type: cell-based; conditions: 37° C.; for difference in cytoprotective effect, γ-Glu-Cys vs γ-Glu-D-Cys: 1 mM each; for difference in cytoprotective effect, γ-Glu-Cys vs γ-Glu-D-Cys / toxicity (increase of hemolysis): 190 minutes; for spontaneous hemolysis / toxicity (increase of hemolysis): 1 mM; for spontaneous hemolysis: 5% red blood cells, phosphate buffer pH 7.4, 190 minutes
Procedure: Human red blood cells (5%) were incubated in isotonic phosphate buffer, pH 7.4 for 190 minutes at 37° C. in the presence or absence of γ-Glu-Cys and γ-Glu-D-Cys, and spontaneous hemolysis was quantified by measuring hemoglobin release spectrophotometrically at 540 nm. […] Values are mean±SE for 4 observations.

[5] = system: cultured blood-brain barrier endothelial cells; test: Lactate dehydrogenase (LDH) release from cultured blood-brain barrier endothelial cells under ischemia and reperfusion; type: cell-based, bovine; conditions: 1 mM; ischemia 1.5 hrs, reperfusion 3.0 hrs; P<0.05
Excerpt: FIG. 7 is a bar graph of data showing that the antioxidant gamma-glutamyl cysteine (γ-Glu-Cys) inhibits cell damage to cerebral capillary endothelial cells cultured under conditions of ischemia and reperfusion.
Cultured blood-brain barrier cells can be used as an in vitro cellular model to confirm that Na/Ca exchange may operate in the reverse direction under conditions simulating reperfusion, following transient ischemia. Cerebral capillary endothelial cells are isolated from bovine brain by the method of Meresse et al. (42), or purchased from Cell Systems Corporation (Kirkland, Wash.). Cells are grown and maintained (up to passage 5) on collagen type I- and fibronectin-coated tissue culture flasks in Eagle's minimal essential medium supplemented with 10% fetal bovine serum (54, 62). To form a polarized endothelium, cells are seeded on cluster plate inserts and incubated in the presence of an astrocyte conditioned medium supplemented with cAMP, as previously described (4, 54). […]
Cultured blood-brain barrier endothelial cells were incubated under conditions of ischemia (1.5 hours) followed by reperfusion (3.0 hours), in the presence and absence of γ-glutamyl cysteine (γ-Glu-Cys). Cellular damage was detected by measuring release of lactate dehydrogenase (LDH) into the incubation medium, following treatment. […]

[6] = system: cultured bovine blood-brain barrier endothelial cells; test: Intracellular sodium (sodium green fluorescence) in cultured blood-brain barrier cells under simulated ischemia-reperfusion; type: cell-based; conditions: 100 μM; ischemia 90 mins, reperfusion 30 mins
Procedure: FIG. 3 is a bar graph of data showing that when cerebral capillary endothelial cells are exposed to ischemic conditions, intracellular sodium concentration increases and remains elevated during reperfusion; the elevation in intracellular sodium is prevented by pharmacological inhibition of the Na/H antiporter. Cultured bovine blood-brain barrier cells were exposed to conditions simulating ischemia and reperfusion, by incubating in 95% N2/5% CO2 without glucose (90 mins) at pH 6.8, followed by room air/5% CO2 with 5.6 mM glucose (30 mins) at pH 7.4, respectively. […] The rise in intracellular sodium observed during reperfusion was prevented by inhibiting Na/H exchange (100 μM dimethylamiloride, DMA). *P<0.05. Values are mean±SD. […] Intracellular sodium was measured with fluorescent imaging, using sodium green. […]
Cultured bovine blood-brain barrier endothelial cells were exposed to conditions simulating ischemia and reperfusion as described in Example 2. Sodium fluorescence is measured in cultured bovine blood-brain barrier endothelial cells under the following conditions: 1) control (120 minutes), 2) simulated ischemia (120 minutes), 3) simulated ischemia (90 minutes) followed by simulated reperfusion (30 minutes), 4) simulated ischemia/reperfusion (90/30 minutes), in the presence of an inhibitor (dimethylamiloride, 100 μM) of Na/H exchange. […]

[7] = system: cultured bovine blood-brain barrier endothelial cells; test: Intracellular calcium (Fluo-4 fluorescence) in cultured blood-brain barrier cells under simulated ischemia-reperfusion; type: cell-based; conditions: 100 μM DMA (Na/H antiport inhibition), listed as DMA
Procedure: FIG. 4 is a bar graph of data showing that when cerebral capillary endothelial cells are exposed to ischemic conditions, intracellular calcium concentration increases and remains elevated during reperfusion; the elevation in intracellular calcium is prevented by pharmacological inhibition of the Na/H antiporter. Cultured bovine blood-brain barrier cells were treated as described above (FIG. 2). […] The rise in intracellular calcium observed during reperfusion was prevented by inhibiting Na/H antiport (100 μM DMA). *P<0.05 compared to control. +P<0.05 compared to reperfusion. Values are mean±SD. Intracellular calcium was measured with fluorescent imaging, using Fluo-4.
FIG. 5 is a bar graph of data showing that when cerebral capillary endothelial cells are exposed to ischemic conditions, intracellular calcium concentration increases and remains elevated during reperfusion; the elevation in intracellular calcium is prevented by pharmacological inhibition of reverse movement of the Na/Ca exchanger. Cultured bovine blood-brain barrier cells were treated as described above (FIG. 2). […] The rise in intracellular calcium observed during reperfusion was prevented by inhibiting reverse movement of Na/Ca exchange (20 μM KB-R7943). *P<0.05 compared to control. +P<0.05 compared to reperfusion. Values are mean±SD. Intracellular calcium was measured with fluorescent imaging, using Fluo-4. […]

[8] = system: caspase 3 activity in cultured bovine blood-brain barrier endothelial cells; test: Caspase 3 activity in cultured blood-brain barrier cells under simulated ischemia-reperfusion; type: cell-based; conditions: 100 μM; 30 mins ischemia, 24 hours reperfusion; P<0.05 from I/Rep
Excerpt: FIG. 6 is a bar graph of data showing that ischemia followed by reperfusion of cultured cerebral capillary endothelial cells results in an increase of caspase 3 activity that is inhibited by an inhibitor of Na/H exchange. Caspase 3 activity is expressed in cultured blood-brain barrier cells exposed to conditions simulating ischemia-reperfusion. […] I/Rep is ischemia plus reperfusion; I/R Na inh is ischemia-reperfusion with inhibitor; I/R Cp inh is ischemia-reperfusion with a specific caspase inhibitor. Values are mean±SD for 3 observations.
Cultured blood-brain barrier cells can be exposed to conditions simulating ischemia and reperfusion, by a method similar to that reported in the literature (25). The precise composition of the incubation medium varies, depending upon the experimental protocols. In general, however, cells are incubated at 37° C. first in an ischemic medium (without glucose, pH 6.8) equilibrated with an atmosphere of 95% N2 and 5% CO2, followed by simulated reperfusion in a control medium (5.6 mM glucose, pH 7.4) equilibrated with room air and 5% CO2. […]
Caspase 3 activity was measured in cultured bovine blood-brain barrier endothelial cells under control conditions (24.5 hours), simulated ischemia (24.5 hours), or ischemia (0.5 hours) followed by reperfusion (24 hours, I/Rep) as described in Example 2. […]

[9] = 0.39 mM in human plasma (90-99%), N=2, P=0.047
[10] = 0.78, 1.56, and 3.13 mM in human plasma (90-99%), N=3

Row | Compound | initial rate (velocity) of degradation ([1]; 6.25 mM) [mM/min] | antioxidant capacity (uric acid equivalents), γ-Glu-Cys vs γ-Glu-D-Cys [2] | antioxidant capacity, γ-Glu-Cys vs γ-Glu-D-Cys [3, 9] | antioxidant capacity, γ-Glu-Cys vs γ-Glu-D-Cys [3, 10] | difference in cytoprotective effect, γ-Glu-Cys vs γ-Glu-D-Cys [4] | spontaneous hemolysis [4] | toxicity (increase of hemolysis) [4] | LDH release (cellular damage) [5] | intactness in serum for 1 minute ([1]; 1 min, 6.25 mM) | half-life at 6.25 mM ([1]; serum) [min] | rise in intracellular sodium observed during reperfusion [6] | rise in intracellular calcium observed during reperfusion [7] | increase in caspase 3 activity [8]
1 | N[C@@H](CCC(=O)N[C@H](CS)C(=O)O)C(=O)O [γ-Glu-D-Cys, γ-glutamyl-D-cysteine] | 0.12 ± 0.02 | not to be significantly different from each other | marginal difference | a significant difference was not detected | no significant difference in their cytoprotective effect | significantly inhibit spontaneous hemolysis | not toxic under the experimental conditions |  |  |  |  |  | 
2 | N[C@@H](CCC(=O)N[C@@H](CS)C(=O)O)C(=O)O [γ-Glu-Cys, γ-glutamyl cysteine] |  | not to be significantly different from each other | marginal difference | a significant difference was not detected | no significant difference in their cytoprotective effect | significantly inhibit spontaneous hemolysis | not toxic under the experimental conditions | reduced LDH release; also recorded: cellular damage was significantly reduced | remains primarily intact for 1 minute in serum | 11.3 ± 1.2 |  |  | 
3 | CN(C)c1nc(N)c(C(=O)N=C(N)N)nc1Cl [dimethylamiloride] |  |  |  |  |  |  |  |  |  |  | prevented; also recorded: inhibits the rise in intracellular sodium | prevented; also recorded: inhibits the rise in intracellular calcium | inhibited
